{"source": "paper PMC1262763", "about": "“Evolutionary selection across the nuclear hormone receptor superfamily with a focus on the NR1I subfamily (vitamin D, pregnane X, and constitutive androstane receptors)” (Nuclear Receptor, 2005)", "key": {"[1]": {"target": "human VDR (Homo sapiens, UniProt P11473)", "sequence (P11473 whole entry)": "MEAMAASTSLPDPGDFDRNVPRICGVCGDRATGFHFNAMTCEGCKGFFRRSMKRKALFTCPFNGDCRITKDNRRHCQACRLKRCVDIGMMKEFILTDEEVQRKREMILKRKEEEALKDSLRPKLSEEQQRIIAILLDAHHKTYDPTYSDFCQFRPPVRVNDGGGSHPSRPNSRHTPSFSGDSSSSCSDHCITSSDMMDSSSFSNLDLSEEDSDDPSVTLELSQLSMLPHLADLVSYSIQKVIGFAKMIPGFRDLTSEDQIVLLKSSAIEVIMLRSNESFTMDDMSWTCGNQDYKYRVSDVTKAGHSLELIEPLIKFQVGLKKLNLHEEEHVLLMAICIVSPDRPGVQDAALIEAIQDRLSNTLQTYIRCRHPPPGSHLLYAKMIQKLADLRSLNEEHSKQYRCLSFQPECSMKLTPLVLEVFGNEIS", "details": "maximal activator […] calcitriol"}, "[2]": {"target": "T1, human PXR (Homo sapiens, UniProt O75469)", "T1 construct": "gene NR1I2; full-length receptor (DBD and LBD), transfected in HepG2-NTCP cells with CYP3A4-PXRE-Luc reporter", "T1 sequence (O75469 1-434)": "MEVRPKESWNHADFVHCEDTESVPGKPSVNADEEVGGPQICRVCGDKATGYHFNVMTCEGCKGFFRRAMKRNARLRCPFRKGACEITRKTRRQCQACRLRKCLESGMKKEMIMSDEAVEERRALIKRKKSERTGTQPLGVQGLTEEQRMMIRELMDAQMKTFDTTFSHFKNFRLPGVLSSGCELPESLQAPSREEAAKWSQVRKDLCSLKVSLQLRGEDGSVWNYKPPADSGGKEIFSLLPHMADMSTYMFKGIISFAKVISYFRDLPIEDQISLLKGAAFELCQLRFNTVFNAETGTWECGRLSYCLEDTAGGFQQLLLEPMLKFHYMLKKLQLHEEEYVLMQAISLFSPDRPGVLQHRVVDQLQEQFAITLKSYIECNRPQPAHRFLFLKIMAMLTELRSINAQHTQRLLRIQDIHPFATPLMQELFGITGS", "experiment": "luciferase reporter transactivation, HepG2-NTCP cells", "type": "cell-based", "details": "concentration-response curve, normalized to […] rifampicin"}, "[3]": {"target": "T2, zebrafish PXR (Danio rerio, UniProt A5WYG8)", "T2 construct": "gene nr1i2; LBD only, fused to GAL4 (tk-UAS-Luc reporter), transfected in HepG2-NTCP cells", "T2 sequence (A5WYG8 144-430 limits assumed)": "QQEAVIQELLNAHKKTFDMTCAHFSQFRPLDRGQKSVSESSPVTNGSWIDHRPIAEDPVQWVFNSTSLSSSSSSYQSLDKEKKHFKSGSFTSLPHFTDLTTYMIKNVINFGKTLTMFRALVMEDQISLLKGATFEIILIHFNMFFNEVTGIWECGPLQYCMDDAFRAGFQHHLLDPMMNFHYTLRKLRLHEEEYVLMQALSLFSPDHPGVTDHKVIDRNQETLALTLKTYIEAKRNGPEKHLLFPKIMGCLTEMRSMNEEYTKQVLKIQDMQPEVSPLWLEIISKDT", "experiment": "GAL4-LBD luciferase reporter transactivation, HepG2-NTCP cells", "type": "cell-based", "details": "concentration-response curve; normalized to […]α-androstan-3α-ol"}, "[4]": {"target": "T3, Xenopus laevis BXRα (Xenopus laevis, UniProt Q91839)", "T3 construct": "gene nr1i2.L; LBD only, fused to GAL4 (tk-UAS-Luc reporter), transfected in HepG2-NTCP cells", "T3 sequence (Q91839 141-386 limits assumed)": "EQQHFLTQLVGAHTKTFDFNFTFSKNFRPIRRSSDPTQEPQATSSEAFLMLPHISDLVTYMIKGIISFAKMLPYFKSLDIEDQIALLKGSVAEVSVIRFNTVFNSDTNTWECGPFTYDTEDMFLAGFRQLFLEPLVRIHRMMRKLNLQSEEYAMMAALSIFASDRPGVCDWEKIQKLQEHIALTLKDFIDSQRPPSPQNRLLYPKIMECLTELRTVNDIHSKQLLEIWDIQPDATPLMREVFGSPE", "experiment": "GAL4-LBD luciferase reporter transactivation, HepG2-NTCP cells", "type": "cell-based", "details": "concentration-response curve; normalized to […] n-butyl-p-aminobenzoate"}}, "note": "Structures can show the parent of a compound that is named as a salt."}
{"smiles": "C[C@H](CCC(=O)O)[C@H]1CC[C@H]2[C@@H]3CC[C@@H]4CC(=O)CC[C@]4(C)[C@H]3CC[C@]12C", "note": "[3-ketolithocholic acid]", "values": [{"measurement": "efficacy relative to calcitriol", "setting": "[1]", "result": 15, "unit": "%"}, {"measurement": "luciferase reporter transactivation, HepG2-NTCP cells", "setting": "[2]", "result": "the early bile salts petromyzonol sulfate and scymnol sulfate, 3-ketolithocholic acid, and the benzoate analog"}]}
{"smiles": "CCCOC(=O)c1ccc(O)cc1", "note": "[n-propyl-p-hydroxybenzoate]", "values": [{"measurement": "GAL4-LBD luciferase reporter transactivation, HepG2-NTCP cells", "setting": "[3]", "result": "zebrafish PXR is activated by pregnenolone, scymnol sulfate, and the benzoate analog"}, {"measurement": "GAL4-LBD luciferase reporter transactivation, HepG2-NTCP cells", "setting": "[4]", "result": "n-propyl-p-hydroxybenzoate, which activates BXRα and BXRβ robustly"}, {"measurement": "luciferase reporter transactivation, HepG2-NTCP cells", "setting": "[2]", "result": "the early bile salts petromyzonol sulfate and scymnol sulfate, 3-ketolithocholic acid, and the benzoate analog"}]}
{"smiles": "C[C@H](CCCOS(=O)(=O)O)[C@H]1CC[C@H]2[C@@H]3[C@H](O)C[C@H]4C[C@H](O)CC[C@]4(C)[C@H]3C[C@H](O)[C@]12C", "note": "[petromyzonol sulfate]", "values": [{"measurement": "luciferase reporter transactivation, HepG2-NTCP cells", "setting": "[2]; OATP co-transfected", "result": "the early bile salts petromyzonol sulfate and scymnol sulfate, 3-ketolithocholic acid, and the benzoate analog"}]}
{"smiles": "CC(=O)[C@H]1CC[C@H]2[C@@H]3CC=C4C[C@@H](O)CC[C@]4(C)[C@H]3CC[C@]12C", "note": "[pregnenolone]", "values": [{"measurement": "GAL4-LBD luciferase reporter transactivation, HepG2-NTCP cells", "setting": "[3]", "result": "zebrafish PXR is activated by pregnenolone, scymnol sulfate, and the benzoate analog"}, {"measurement": "luciferase reporter transactivation, HepG2-NTCP cells", "setting": "[2]", "result": "Human PXR is activated by micromolar concentrations of the steroid pregenonolone"}]}
